Laboratory results reported in patent US10369160B2, “Methods of treating cancer” (Intercept Pharmaceuticals, Inc., priority 2016, dated 2019).

Key:
[1] = tested on: fibroblast growth factor 15 (Fgf15); experiment: Ileal FXR target gene expression, Fgf15, in Mdr2^−/− mice; format: in vivo; conditions: Mdr2^−/− groups only (not FXR^−/−)
Source text: (§1) As expected, both INT-747 and INT-767 stimulated fibroblast growth factor 15 (Fgf15) and small heterodimer partner (Shp) gene expression in Mdr2^−/− groups only (FIGS. 7A and 7B).

[2] = tested on: bile salt export pump (Bsep); experiment: Hepatic FXR target gene expression, Bsep, in Mdr2^−/− mice; format: in vivo
Source text: Cholesterol 7 alpha-hydroxylase (cyp7a1) is the rate limiting enzyme in the classical biosynthetic pathways which convert cholesterol into bile acids. […] The bile salt export pump (Bsep) is a membrane protein that uses energy of ATP hydrolysis to actively transport bile acid salts.

Mdr2^−/− mice = experiment: Hepatocarcinogenesis in Mdr2^−/− mice (tumors, LW/BW, ALT/AST, serum bile acids)
Experimental: The effects of INT-747, INT-767, and control diet in Mdr2^−/− and FXR^−/− mice on the development of hepatocellular carcinoma were evaluated. INT-747 is a FXR agonist while INT-767 is a dual FXR/TGR5 agonist.
(§2) Mdr2^−/− and FXR^−/− mice were randomly divided into three experimental groups.
The mice were fed a specific rodent diet or a diet supplemented with INT-747, INT-767, or control diet for 15 months. […] After 16 months, the mice were sacrificed and serum, liver and intestine were collected. The total number of hepatic tumors was counted and the diameter of each tumor was measured.
(§3) • Mice (n=4) were fed control diet for 15 months. Group 2: INT-747 • Mice (n=8) were fed control diet supplemented with OCA at a dose of 10 mg/kg for 15 months. Group 3: INT-767 • Mice (n=15) were fed control diet supplemented with INT-767 at a dose of 10 mg/kg for 15 months.

[3] = tested on: small heterodimer partner (Shp); experiment: Ileal FXR target gene expression, Shp, in Mdr2^−/− mice; format: in vivo; conditions: Mdr2^−/− groups only (not FXR^−/−)
Source text: as §1

FXR^−/− mice = experiment: Hepatocarcinogenesis in FXR^−/− mice (tumors, LW/BW, ALT/AST, serum bile acids); conditions: for liver tumors found: diet 10 mg/kg for 15 months
Experimental: The effects of INT-747, INT-767, and control diet in Mdr2^−/− and FXR^−/− mice on the development of hepatocellular carcinoma were evaluated.
as §2
The mice were fed a specific rodent diet or a diet supplemented with INT-747, INT-767, or control diet for 15 months. All mice were housed under pathogen-free conditions in a temperature-controlled room (23° C.) on a 12-hour light/dark cycle and drank water ad libitum. […] After 16 months, the mice were sacrificed and serum, liver and intestine were collected. The total number of hepatic tumors was counted and the diameter of each tumor was measured.
as §3

[4] = tested on: Cholesterol 7 alpha-hydroxylase (cyp7a1); experiment: Hepatic FXR target gene expression, Cyp7a1, in Mdr2^−/− mice; format: in vivo; conditions: Mdr2^−/− mice only (not FXR^−/−)
Source text: Cholesterol 7 alpha-hydroxylase (cyp7a1) is the rate limiting enzyme in the classical biosynthetic pathways which convert cholesterol into bile acids. Both INT-767 and INT-747 inhibited Cyp7a1 gene expression in Mdr2^−/− mice only (FIG. 8). The bile salt export pump (Bsep) is a membrane protein that uses energy of ATP hydrolysis to actively transport bile acid salts.

FXR = molecular target: T1, FXR (Homo sapiens, UniProt Q96RI1); experiment: Potency for FXR (INT-767 versus INT-747); conditions: greater than INT-747
T1 sequence (Q96RI1 1-486): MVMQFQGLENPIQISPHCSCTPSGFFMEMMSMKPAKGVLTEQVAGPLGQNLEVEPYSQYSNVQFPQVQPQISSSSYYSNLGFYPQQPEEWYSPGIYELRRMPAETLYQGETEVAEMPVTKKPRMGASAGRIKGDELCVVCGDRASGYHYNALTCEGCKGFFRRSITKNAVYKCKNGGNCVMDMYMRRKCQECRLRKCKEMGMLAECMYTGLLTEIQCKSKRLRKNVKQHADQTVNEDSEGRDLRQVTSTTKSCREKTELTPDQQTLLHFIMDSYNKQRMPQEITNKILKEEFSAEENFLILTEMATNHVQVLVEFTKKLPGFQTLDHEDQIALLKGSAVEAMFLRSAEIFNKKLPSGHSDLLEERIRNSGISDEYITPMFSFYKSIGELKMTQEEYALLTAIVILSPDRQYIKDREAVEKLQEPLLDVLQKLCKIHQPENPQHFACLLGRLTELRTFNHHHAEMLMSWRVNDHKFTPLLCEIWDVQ

Compound	ileal Fgf15 gene expression [1]	hepatic Bsep induction [2]	liver tumors found (appearance/size) (Mdr2^−/− mice; diet 10 mg/kg for 15 months)	tumors with a diameter larger than 5 mm (Mdr2^−/− mice; diet 10 mg/kg for 15 months)	ileal Shp gene expression [3]	liver tumors found (FXR^−/− mice)	hepatic Cyp7a1 gene expression [4]	potency for FXR relative to INT-747 (FXR)	serum bile acid levels (Mdr2^−/− mice)	LW/BW ratio (liver weight/body weight) (Mdr2^−/− mice; compared to control and INT-747 treated mice)	hepatocellular carcinoma development (number of hepatic tumors) (Mdr2^−/− mice; diet 10 mg/kg for 15 months, compared to control)	ALT levels (Mdr2^−/− mice; vs control)	AST levels (Mdr2^−/− mice; vs control)	ALT levels (FXR^−/− mice)	AST levels (FXR^−/− mice)	LW/BW ratio (liver weight/body weight) (FXR^−/− mice)	serum bile acid levels (FXR^−/− mice)
CC[C@H]1[C@@H](O)[C@@H]2[C@H](CC[C@]3(C)[C@@H]([C@H](C)CCC(=O)O)CC[C@@H]23)[C@@]2(C)CC[C@@H](O)C[C@@H]12 [INT-747, 6α-ethyl-3α,7α-dihydroxy-5β-cholan-24-oic acid]	stimulated	did not promote hepatic Bsep induction	clearly identifiable liver tumors	~80%	stimulated	several large liver tumors	inhibited										
CC[C@H]1[C@@H](O)[C@@H]2[C@H](CC[C@]3(C)[C@@H]([C@H](C)CCOS(=O)(=O)[O-])CC[C@@H]23)[C@@]2(C)CC[C@@H](O)C[C@@H]12.[Na+] [INT-767, 6α-ethyl-3α,7α,23-trihydroxy-24-nor-5β-cholan-23-sulphate sodium]	stimulated	induced hepatic Bsep activation	minute tumors		stimulated	several large liver tumors		about 10 fold	significantly reduced	significant reduction	clearly prevented hepatocellular carcinoma development	significantly reduced	significantly reduced	no difference	no difference	No difference	no reduction occurred
CC[C@H]1[C@@H](O)C2C3CC[C@H]([C@H](C)CCOS(=O)(=O)[O-])[C@@]3(C)CCC2[C@@]2(C)CC[C@@H](O)C[C@@H]12.[Na+] (stereo partly drawn) [INT-767, 6α-ethyl-3α,7α,23-trihydroxy-24-nor-5β-cholan-23-sulphate sodium]							inhibited										
